Assay: xn = mol fraction of the nth substance listed
Conditions: 101 kPa, frequency 2 MHz

O=S(=O)([O-])C(F)(F)F.[Li+] + O=S(=O)([N-]S(=O)(=O)C(F)(F)F)C(F)(F)F.[Li+] + O
electrical conductivity [S/m]
Conditions	333 K	338.1 K	343 K	348.1 K	353 K	358.1 K
x2 = 0.001799, x1 = 0.0005943	–	1.57	1.67	1.77	1.86	1.942
x2 = 0.005377, x1 = 0.001799	–	3.913	4.16	4.39	4.601	4.79
x2 = 0.00893, x1 = 0.003054	–	5.77	6.124	6.46	6.76	7.029
x2 = 0.01246, x1 = 0.004127	–	7.28	7.725	8.142	8.518	8.846
x2 = 0.01596, x1 = 0.005377	–	8.517	9.039	9.522	9.96	10.33
x2 = 0.01944, x1 = 0.006623	–	9.534	10.12	10.7	11.13	11.5
x2 = 0.05129, x1 = 0.0177	–	12.8	13.6	14.26	14.9	15.41
x2 = 0.08265, x1 = 0.02921	–	11.3	12	12.6	13.18	13.7
x2 = 0.112, x1 = 0.04029	–	8.943	9.518	10.05	10.5	11
x2 = 0.1395, x1 = 0.05129	–	6.839	7.313	7.76	8.17	8.535
x2 = 0.1654, x1 = 0.06203	–	5.18	5.57	5.943	6.29	6.609
x2 = 0.1898, x1 = 0.07238	–	3.921	4.245	4.56	4.86	5.128
x2 = 0.2128, x1 = 0.08265	–	2.98	3.244	3.507	3.76	4
x2 = 0.2345, x1 = 0.0927	–	2.26	2.48	2.705	2.917	3.118
x2 = 0.2551, x1 = 0.1024	1.539	1.72	1.903	2.08	2.26	2.429
x2 = 0.2745, x1 = 0.112	1.16	1.303	1.45	1.6	1.744	1.88

Reference: the CheMixHub ionic liquid set
